This passage reports IC50 results from patent US11084800B2 (Achillion Pharmaceuticals, Inc., priority 2017, dated 2021).

Sequence of Human Factor D (P00746 26-253): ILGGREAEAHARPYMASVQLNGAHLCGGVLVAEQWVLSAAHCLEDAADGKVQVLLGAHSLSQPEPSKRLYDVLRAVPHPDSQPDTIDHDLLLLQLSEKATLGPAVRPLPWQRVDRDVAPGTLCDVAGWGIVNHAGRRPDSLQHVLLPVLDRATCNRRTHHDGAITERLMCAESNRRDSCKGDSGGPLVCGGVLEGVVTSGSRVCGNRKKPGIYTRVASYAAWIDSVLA

The first experiment addresses Human Factor D (Homo sapiens (Human), UniProt P00746). Briefly: Human Factor D Assay. It is filed as biochemical. As to conditions: Factor D inhibition, assay of Example 10; read-out: IC5 (Stars). In outline: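 Thioester substrate Z-L-Lys-SBz (100 μM) with Ellman's reagent DTNB (100 μM) reports activity of 80 nM human serum-derived enzyme, kinetically at 405 nm over 30 min. Compound preincubated 5 min, room temperature, pH 7.5 Tris/1 M NaCl; IC50 by nonlinear fit of rates.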
Take `CC(=O)c1nn(CC(=O)N2C[C@H]3C[C@H]3[C@H]2C(=O)Nc2nc(Br)ccc2C)c2c(C(C)C)nc(-c3cnc(C)nc3)cc12` [Compound 388, (1R,25,5S)-3-(2-(3-acetyl-7-isopropyl-5-(2-methylpyrimidin-5-yl)-1H-pyrazolo[3,4-c]pyridin-1-yl)acetyl)-N-(6-bromo-3-methylpyridin-2-yl)-3-azabicyclo[3.1.0]hexane-2-carboxamide]: the IC50 is below 1000 nM.
On to `Cc1ncc(-c2ccc3c(c2)c(C(=O)c2ncc[nH]2)nn3CC(=O)N2[C@H](C(=O)Nc3nc(Br)ccc3C)C[C@@]3(C)C[C@@H]23)cn1` [Compound 389, (1R,3S,5R)-2-(2-(3-(1H-Imidazole-2-carbonyl)-5-(2-methylpyrimidin-5-yl)-1H-indazol-1-yl)acetyl)-N-(6-bromo-3-methylpyridin-2-yl)-5-methyl-2-azabicyclo[3.1.0]hexane-3-carboxamide], for which the IC50 is above 10000 nM.
The same measure, in the same setting: with `CC(=O)c1nn(CC(=O)N2C[C@H]3C[C@H]3[C@H]2C(=O)Nc2nc(Br)c(F)cc2C)c2c(C)nc(-c3cnc(C)nc3)cc12` [Compound 393, (1R,2S,5S)-3-(2-(3-acetyl-7-methyl-5-(2-methylpyrimidin-5-yl)-1H-pyrazolo[3,4-c]pyridin-1-yl)acetyl)-N-(6-bromo-5-fluoro-3-methylpyridin-2-yl)-3-azabicyclo[3.1.0]hexane-2-carboxamide] the figure was below 1000 nM; with `COc1cc2c(cc1-c1cnc(C)nc1)c(C(C)=O)nn2CC(=O)N1[C@H](C(=O)Nc2nc(Br)ccc2C)C[C@@]2(C)C[C@@H]12` [Compound 394, (1R,3S,5R)-2-(2-(3-acetyl-6-methoxy-5-(2-methylpyrimidin-5-yl)-1H-indazol-1-yl)acetyl)-N-(6-bromo-3-methylpyridin-2-yl)-5-methyl-2-azabicyclo[3.1.0]hexane-3-carboxamide], below 1000 nM.
On to `COC(=O)c1cc2c(cc1-c1cnc(C)nc1)c(C(C)=O)nn2CC(=O)N1[C@H](C(=O)Nc2nc(Br)ccc2C)C[C@@]2(C)C[C@@H]12` [Compound 395, methyl 3-acetyl-1-(2-((1R,3S,5R)-3-((6-bromo-3-methylpyridin-2-yl)carbamoyl)-5-methyl-2-azabicyclo[3.1.0]hexan-2-yl)-2-oxoethyl)-5-(2-methylpyrimidin-5-yl)-1H-indazole-6-carboxylate], for which the IC50 was below 1000 nM.
The same measure, in the same setting: as for `CC(=O)c1nn(CC(=O)N(C(=O)[C@@H]2C[C@@]3(C)C[C@H]3N2)c2nc(Br)ccc2CN(CCC(F)(F)F)CCC(F)(F)F)c2cnc(-c3cnc(C)nc3)cc12` [Compound 396, (1R,3S,5R)-2-(2-(3-acetyl-5-(2-methylpyrimidin-5-yl)-1H-pyrazolo[3,4-c]pyridin-1-yl)acetyl)-N-(3-((bis(3,3,3-trifluoropropyl)amino)methyl)-6-bromopyridin-2-yl)-5-methyl-2-azabicyclo[3.1.0]hexane-3-carboxamide], the figure is below 1000 nM.
Same read-out and setting: with `CC(=O)c1nn(CC(=O)N2[C@H](C(=O)Nc3nc(Br)ccc3Cc3nn[nH]n3)C[C@@]3(C)C[C@@H]23)c2cnc(-c3cnc(C)nc3)cc12` [Compound 397, (1R, 3S, 5R)—N-(3-((2H-Tetrazol-5-yl)methyl)-6-bromopyridin-2-yl)-2-(2-(3-acetyl-5-(2-methylpyrimidin-5-yl)-1H-pyrazolo[3,4-c]pyridin-1-yl)acetyl)-5-methyl-2-azabicyclo[3.1.0]hexane-3-carboxamide] the figure was below 1000 nM.
Still for that read-out and setting: as for `CC(=O)c1nn(CC(=O)N2[C@H](C(=O)Nc3nc(Br)ccc3CN(C)C)C[C@@]3(C)C[C@@H]23)c2cc(Cl)c(-c3cnc(C)nc3)cc12` [Compound 399, (1R,3S,5R)-2-(2-(3-acetyl-6-chloro-5-(2-methylpyrimidin-5-yl)-1H-indazol-1-yl)acetyl)-N-(6-bromo-3-((dimethylamino)methyl)pyridin-2-yl)-5-methyl-2-azabicyclo[3.1.0]hexane-3-carboxamide], the figure is below 1000 nM; as for `CC(=O)c1nn(CC(=O)N2[C@H](C(=O)Nc3nc(Br)ccc3CCCN3CCOCC3)C[C@@]3(C)C[C@@H]23)c2cnc(-c3cnc(C)nc3)cc12` [Compound 400, (1R,3S,5R)-2-(2-(3-Acetyl-5-(2-methylpyrimidin-5-yl)-1H-pyrazolo[3,4-c]pyridin-1-yl)acetyl)-N-(6-bromo-3-(3-morpholinopropyl)pyridin-2-yl)-5-methyl-2-azabicyclo[3.1.0]hexane-3-carboxamide], below 1000 nM.
For the compound `Cc1ncc(-c2cc3c(C(C)O)nn(CC(=O)N4[C@H](C(=O)Nc5nc(Br)ccc5C)C[C@@]5(C)C[C@@H]45)c3cn2)cn1` (stereo partly drawn) [Compound 402, (1R,3S,5R)-N-(6-bromo-3-methylpyridin-2-yl)-2-(2-(3-(1-hydroxyethyl)-5-(2-methylpyrimidin-5-yl)-1H-pyrazolo[3,4-c]pyridin-1-yl)acetyl)-5-methyl-2-azabicyclo[3.1.0]hexane-3-carboxamide], the IC50 was 1000 to 10000 nM.

Staying with this experiment, now noted: Table 8; Factor D 80 nM, substrate Z-L-Lys-SBz; read-out: IC50.
Consider `COC(=O)CCCCCCCCCCCCCCCCC(=O)N[C@@H](CCC(=O)NCCOCCOCC(=O)NCCOCCOCC(=O)NC[C@@]12C[C@@H](C(=O)Nc3nc(Br)ccc3C)N(C(=O)Cn3nc(C(C)=O)c4cc(-c5cnc(C)nc5)cc(C)c43)[C@@H]1C2)C(=O)OC` [Compound 391, Methyl (S)-1-((1R,3S,5R)-2-(2-(3-acetyl-7-methyl-5-(2-methylpyrimidin-5-yl)-1H-indazol-1-yl)acetyl)-3-((6-bromo-3-methylpyridin-2-yl)carbamoyl)-2-azabicyclo[3.1.0]hexan-5-yl)-24-(methoxycarbonyl)-3,12,21,26-tetraoxo-5,8,14,17-tetraoxa-2,11,20,25-tetraazatritetracontan-43-oate], for which the IC50 is below 1000 nM.
On the same count and under the same terms, as for `CC(=O)c1nn(CC(=O)N2[C@H](C(=O)Nc3nc(Br)ccc3C)C[C@@]3(CNC(=O)COCCOCCNC(=O)COCCOCCNC(=O)CC[C@H](NC(=O)CCCCCCCCCCCCCCCCC(=O)O)C(=O)O)C[C@@H]23)c2c(C)cc(-c3cnc(C)nc3)cc12` [Compound 392, (S)-1-((1R,3S,5R)-2-(2-(3-Acetyl-7-methyl-5-(2-methylpyrimidin-5-yl)-1H-indazol-1-yl)acetyl)-3-((6-bromo-3-methylpyridin-2-yl)carbamoyl)-2-azabicyclo[3.1.0]hexan-5-yl)-24-carboxy-3,12,21,26-tetraoxo-5,8,14,17-tetraoxa-2,11,20,25-tetraazatritetracontan-43-oic acid], the figure is below 1000 nM; as for `COC(=O)CCCCCCCCCCCCCCCCC(=O)N[C@@H](CCC(=O)NCCOCCOCC(=O)NCCOCCOCC(=O)NCc1ncc(-c2cc(C)c3c(c2)c(C(C)=O)nn3CC(=O)N2[C@H](C(=O)Nc3nc(Br)ccc3C)C[C@@]3(C)C[C@@H]23)cn1)C(=O)O` [Compound 403], below 1000 nM; as for `CC(=O)c1nn(CC(=O)N2[C@H](C(=O)Nc3nc(Br)ccc3C)C[C@@]3(C)C[C@@H]23)c2c(C)cc(-c3cnc(CNC(=O)COCCOCCNC(=O)COCCOCCNC(=O)CC[C@H](NC(=O)CCCCCCCCCCCCCCCCC(=O)O)C(=O)O)nc3)cc12` [Compound 404], below 1000 nM.
In the case of `COC(=O)CCCCCCCCCCCCCCCCC(=O)N[C@@H](CCC(=O)NCCOCCOCC(=O)NCCOCCOCC(=O)NCc1ncc(-c2cc3c(C(C)=O)nn(CC(=O)N4[C@H](C(=O)Nc5nc(Br)ccc5C)C[C@@]5(C)C[C@@H]45)c3cn2)cn1)C(=O)OC` [Compound 405], the IC50 was below 1000 nM.
